According to article PMC6958661, “Regulatory Role of PlaR (YiaJ) for Plant Utilization in Escherichia coli K-12” (Scientific Reports, 2019):

Molecular target: T1, PlaR (YiaJ) (Escherichia coli, UniProt P37671)
T1 sequence (P37671 1-282): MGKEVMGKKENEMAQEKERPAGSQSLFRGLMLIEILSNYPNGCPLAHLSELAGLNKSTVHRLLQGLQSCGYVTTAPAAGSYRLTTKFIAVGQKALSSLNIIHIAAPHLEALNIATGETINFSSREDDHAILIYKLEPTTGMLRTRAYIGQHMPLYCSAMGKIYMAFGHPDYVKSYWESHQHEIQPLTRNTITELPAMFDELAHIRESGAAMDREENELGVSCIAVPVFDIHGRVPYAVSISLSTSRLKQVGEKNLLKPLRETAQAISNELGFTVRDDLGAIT
Experiment: gel shift assay, dissociation of PlaR from yiaK promoter DNA
Type: binding
Conditions: 2.5 uM PlaR, yiaK promoter probe, 1-25 mM compound, 37 °C, pH 7.8, 150 mM NaCl, 3 mM Mg acetate; effector (inducer)

Row | Compound | gel shift assay, dissociation of PlaR from yiaK promoter DNA
1 | O=C1O[C@H]([C@@H](O)CO)C(O)=C1O [L-ascorbate] | Both the metabolites induced a dose-dependent dissociation in vitro of PlaR from the PlaR-yiaK promoter
2 | O=C(O)[C@H]1O[C@H](O)[C@H](O)[C@@H](O)[C@H]1O [α-D-galacturonate] | Both the metabolites induced a dose-dependent dissociation in vitro of PlaR from the PlaR-yiaK promoter
